From patent publication US8815891B2, “Tricyclic derivative or pharmaceutically acceptable salts thereof, preparation method thereof, and pharmaceutical composition containing the same” (Je Il Pharmaceutical Co., Ltd., priority 2008, dated 2014) come the findings set out here.

Counter-ions that a name gives are not always drawn.

Sequence of PARP-1 enzyme (P09874 whole entry): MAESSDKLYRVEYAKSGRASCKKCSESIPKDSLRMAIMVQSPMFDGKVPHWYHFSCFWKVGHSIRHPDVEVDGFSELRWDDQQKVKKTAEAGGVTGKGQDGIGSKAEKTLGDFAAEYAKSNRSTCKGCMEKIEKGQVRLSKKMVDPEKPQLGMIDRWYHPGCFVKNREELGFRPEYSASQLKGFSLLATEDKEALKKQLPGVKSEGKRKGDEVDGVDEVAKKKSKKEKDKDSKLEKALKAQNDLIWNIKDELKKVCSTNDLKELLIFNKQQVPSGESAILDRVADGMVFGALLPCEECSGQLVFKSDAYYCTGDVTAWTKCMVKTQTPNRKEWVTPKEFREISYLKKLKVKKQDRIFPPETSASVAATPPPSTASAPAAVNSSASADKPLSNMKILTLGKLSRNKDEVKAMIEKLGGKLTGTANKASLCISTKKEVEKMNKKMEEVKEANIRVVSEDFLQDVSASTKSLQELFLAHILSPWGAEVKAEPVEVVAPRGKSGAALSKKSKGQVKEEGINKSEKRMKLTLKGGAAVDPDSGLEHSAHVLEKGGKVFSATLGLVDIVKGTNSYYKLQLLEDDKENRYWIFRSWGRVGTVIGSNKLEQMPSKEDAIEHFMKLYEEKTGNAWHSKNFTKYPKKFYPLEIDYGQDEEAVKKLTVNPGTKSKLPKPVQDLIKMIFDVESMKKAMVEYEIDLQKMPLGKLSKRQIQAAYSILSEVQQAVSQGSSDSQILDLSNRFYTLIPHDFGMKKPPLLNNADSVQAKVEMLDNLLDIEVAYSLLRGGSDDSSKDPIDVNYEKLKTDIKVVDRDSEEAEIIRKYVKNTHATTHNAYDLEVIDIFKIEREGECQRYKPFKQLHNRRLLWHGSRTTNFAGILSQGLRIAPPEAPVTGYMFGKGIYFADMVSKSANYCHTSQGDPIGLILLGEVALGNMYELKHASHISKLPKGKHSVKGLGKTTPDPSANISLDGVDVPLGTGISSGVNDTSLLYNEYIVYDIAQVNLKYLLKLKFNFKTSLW

The target of one experiment is PARP-1 enzyme (Homo sapiens (Human), UniProt P09874). The experiment can be described thus: Poly(ADP-ribose)polymerase [PARP-1] enzyme inhibitory activity (Trevigen PARP Assay kit). In kind it is biochemical. As to conditions: PARP-1 enzyme, histone ribosylation, 450 nm; read-out: PARP-1 Inhibitory activity IC50. The procedure:
The activity of the compounds according to the present invention to inhibit the PARP-1 enzyme was examined using a PARP Assay kit (4671-096-K) purchased from Trevigen. The assay was performed following a modified previously reported method by Lee et al [Methods Find, Exp. Clin. Pharmacol., 27, 617-622, 2005].
Histone was coated on 384-well plate, which is a small volume PS plate (784101) of Greiner Bio-One, and left at 25° C. for 2 hours. After that, the plate was rinsed four times with PBS (7.5 mM Na2HPO4, 2.5 mM NaH2PO4, 145 mM NaCl, pH 7.4), and in order to prevent non-specific reaction, the Strep-diluent (provided from kit of Trevigen) was added and left at 25° C. for one hour. After one hour, the plate was again rinsed with PBS four times, and the compounds of the Examples in various concentrations were put into reactant containing PARP-1 enzyme (0.12 unit/well), 2×PARP cocktail (1.95 mM NAD^+, 50 uM biotinylated NAD^+, and activated DNA in 50 mM Tris pH 8.0, 25 mM MgCl2) and allowed to react at 25° C. for 30 minutes. After 30 minutes, each well was rinsed with PBS four times, and in order to measure the amount of rybosylation by the PARP enzyme, strepavidin-linked peroxidase (Strep-HRP, 1:1000 diluted) was added and allowed to react at 37° C. for 30 minutes. The plate was rinsed with PBS four times, and TACS-Sapphire substrate was put and allowed to react at 25° C. for 10 minutes so that color reaction occurred. Finally, the reaction was terminated by the addition of 0.2 N HCl. The amount of histone ribosylation formed by PARP-1 enzyme was quantified at 450 nm using Wallac EnVision™ (PerkinElmer Oy, Turku, Finland).
As for `CNC(C)c1ccc2c3c(c(=O)[nH]c2c1)CCCN3` (stereo not shown) [Example 39, 8-[1-(Methylamino)ethyl]-1,2,3,4-tetrahydrobenzo[h][1,6]naphthyridine-5(6H)-one dihydrochloride], the IC50 was under 1000 nM. The same measure, in the same setting: in the case of `CN1CCCc2c1c1cc(O)ccc1[nH]c2=O` [Example 10, 1-Methyl-9-hydroxy-1,2,3,4-tetrahydrobenzo[h][1,6]naphthyridine-5(6H)-one hydrochloride] it was over 4000 nM; in that of `COc1ccc2[nH]c(=O)c3c(c2c1)NCCC3` [Example 3, 9-Methoxy-1,2,3,4-tetrahydrobenzo[h][1,6]naphthyridine-5(6H)-one hydrochloride], 500 nM; in that of `COc1cc(CN(C)CCCl)cc2[nH]c(=O)c3c(c12)NCCC3` [Example 85, 8-{[(2-Chloroethyl)(methyl)amino]methyl}-10-methoxy-1,2,3,4-tetrahydrobenzo[h][1,6]naphthyridine-5(6H)-one dihydrochloride], 180 nM.

With `CCN(CC)CCOc1ccc2[nH]c(=O)c3c(c2c1)NCCC3` [Example 26, 9-[2-(Diethylamino)ethoxy]-1,2,3,4-tetrahydrobenzo[h][1,6]naphthyridine-5(6H)-one dihydrochloride], the IC50 is under 1000 nM. Still for that read-out and setting: under `CN1CCCc2c1c1ccc(CN3CCCCC3)cc1[nH]c2=O` [Example 69, 1-Methyl-8-(piperidine-1-ylmethyl)-1,2,3,4-tetrahydrobenzo[h][1,6]naphthyridine-5(6H)-one dihydrochloride] stands over 4000 nM; under `CCCN1CCCc2c1c1cc(OC)ccc1[nH]c2=O` [Example 6, 9-Methoxy-1-propyl-1,2,3,4-tetrahydrobenzo[h][1,6]naphthyridine-5(6H)-one hydrochloride], over 4000 nM. On the same count and under the same terms, in the case of `COc1ccc2[nH]c(=O)c3c(c2c1)N(C)CCC3` [Example 8, 9-Methoxy-1-methyl-1,2,3,4-tetrahydrobenzo[h][1,6]naphthyridine-5(6H)-one hydrochloride] it was over 4000 nM.

As for `O=c1[nH]c2cc(CNCC(F)(F)F)ccc2c2c1CCCN2` [Example 62, 8-[(2,2,2-Trifuloroethylamino)methyl]-1,2,3,4-tetrahydrobenzo[h][1,6]naphthyridine-5(6H)-one dihydrochloride], the IC50 is over 4000 nM.

As to `O=c1[nH]c2ccc(OCCCN3CCCCC3)cc2c2c1CCCN2` [Example 21, 9-[3-(Piperidine-1yl)propoxy]-1,2,3,4-tetrahydrobenzo[h][1,6]naphthyridine-5(6H)-one dihydrochloride], the IC50 is over 4000 nM. Turning to `COc1cc(CO)cc2[nH]c(=O)c3c(c12)NCCC3` [Example 105, 8-(Hydroxymethyl)-10-methoxy-1,2,3,4-tetrahydrobenzo[h][1,6]naphthyridine-5(6H)-one hydrochloride], the IC50 stood at 190 nM. Still for that read-out and setting: under `O=c1[nH]c2cc(Cn3cccc3)ccc2c2c1CCCN2` [Example 65, 8-[(1H-Pyrrole-1-yl)methyl]-1,2,3,4-tetrahydrobenzo[h][1,6]naphthyridine-5(6H)-one hydrochloride] stands 1540 nM.

The same experiment, now with this note: read-out: PARP-1 Inhibitory activity IC50.
Consider `COc1cc(CN(C)C2CCOCC2)cc2[nH]c(=O)c3c(c12)NCCC3` [Example 115, 10-Methoxy-8-{[methyl(tetrahydro-2H-pyran-4-yl)amino]methyl}-1,2,3,4-tetrahydrobenzo[h][1,6]naphthyridine-5(6H)-one dihydrochloride], for which the IC50 came out at 410 nM. In the case of `CCN(CC)Cc1ccc2c3c(c(=O)[nH]c2c1)CCCN3C` [Example 68, 8-[(Diethylamino)methyl]-1-methyl-1,2,3,4-tetrahydrobenzo[h][1,6]naphthyridine-5(6H)-one dihydrochloride], the IC50 amounted to 1190 nM. With `COc1cc(CN2CCC(=O)CC2)cc2[nH]c(=O)c3c(c12)NCCC3` [Example 78, 10-Methoxy-8-[(4-oxopiperidine-1-yl)methyl]-1,2,3,4-tetrahydrobenzo[h][1,6]naphthyridine-5(6H)-one dihydrochloride], the IC50 was determined as 110 nM. `COCCN(C)Cc1ccc2c3c(c(=O)[nH]c2c1)CCCN3` [Example 60, 8-{[(2-Methoxyethyl)(methyl)amino]methyl}-1,2,3,4-tetrahydrobenzo[h][1,6]naphthyridine-5(6H)-one dihydrochloride]: the IC50 worked out at 120 nM.

On to `NCc1ccc2c3c(c(=O)[nH]c2c1)CCCN3` [Example 112, 8-(Aminomethyl)-1,2,3,4-tetrahydrobenzo[h][1,6]naphthyridine-5 (6H)-one dihydrochloride], for which the IC50 is 170 nM. The same measure, in the same setting: in the case of `O=c1[nH]c2ccc(OCCN3CCOCC3)cc2c2c1CCCN2` [Example 27, 9-(2-Morpholinoethoxy)-1,2,3,4-tetrahydrobenzo[h][1,6]naphthyridine-5(6H)-one dihydrochloride] it was 2640 nM; in that of `CNC(C)c1ccc2c3c(c(=O)[nH]c2c1)CCCN3` (stereo not shown) [Example 39, 8-[1-(Methylamino)ethyl]-1,2,3,4-tetrahydrobenzo[h][1,6]naphthyridine-5(6H)-one dihydrochloride], 100 nM. Take `COc1cc(CNC2CCCC2)cc2[nH]c(=O)c3c(c12)NCCC3` [Example 89, 8-[(Cyclopentylamino)methyl]-10-methoxy-1,2,3,4-tetrahydrobenzo[h][1,6]naphthyridine-5(6H)-one dihydrochloride]: the IC50 was 270 nM. On the same count and under the same terms, in the case of `CCCNCc1ccc2c3c(c(=O)[nH]c2c1)CCCN3` [Example 46, 8-[(Propylamino)methyl]-1,2,3,4-tetrahydrobenzo[h][1,6]naphthyridine-5(6H)-one dihydrochloride] it was 590 nM; in that of `CCN(CC)CCOc1ccc2[nH]c(=O)c3c(c2c1)NCCC3` [Example 26, 9-[2-(Diethylamino)ethoxy]-1,2,3,4-tetrahydrobenzo[h][1,6]naphthyridine-5(6H)-one dihydrochloride], 390 nM.

Turning to `O=c1[nH]c2cc(OCCN3CCCCC3)ccc2c2c1CCCN2` [Example 35, 8-[2-(Piperidine-1yl)ethoxy]-1,2,3,4-tetrahydrobenzo[h][1,6]naphthyridine-5(6H)-one dihydrochloride], the IC50 stood at 3540 nM. For the molecule `CCOC(=O)CCN(C)Cc1ccc2c3c(c(=O)[nH]c2c1)CCCN3` [Example 57, Ethyl-3-{methyl[(5-oxo-1,2,3,4,5,6-hexahydrobenzo[h][1,6]naphthyridine-8-yl)methyl]amino}propanoate dihydrochloride], the concentration for half-maximal inhibition (IC50) is 480 nM. Regarding `N#CCNCc1ccc2c3c(c(=O)[nH]c2c1)CCCN3` [Example 63, 2-[(5-Oxo-1,2,3,4,5,6-hexahydrobenzo[h][1,6]naphthyridine-8-yl)methylamino]acetonitrile dihydrochloride], the IC50 worked out at 1020 nM. For the molecule `O=c1[nH]c2ccc(OCCN3CCNCC3)cc2c2c1CCCN2` [Example 19, 9-[2-(Piperazine-1yl)ethoxy]-1,2,3,4-tetrahydrobenzo[h][1,6]naphthyridine-5(6H)-one trihydrochloride], the IC50 was determined as 1480 nM. Consider `CC(C)NCc1ccc2c3c(c(=O)[nH]c2c1)CCCN3` [Example 45, 8-[(Isopropylamino)methyl]-1,2,3,4-tetrahydrobenzo[h][1,6]naphthyridine-5(6H)-one dihydrochloride], for which the IC50 is 260 nM. Still for that read-out and setting: in the case of `CN1CCCc2c1c1cc(OCCN3CCCCC3)ccc1[nH]c2=O` [Example 30, 1-Methyl-9-[2-(piperidine-1-yl)ethoxy]-1,2,3,4-tetrahydrobenzo[h][1,6]naphthyridine-5(6H)-one dihydrochloride] it was 3110 nM; in that of `COc1cc(CNN2CCOCC2)cc2[nH]c(=O)c3c(c12)NCCC3` [Example 96, 10-Methoxy-8-[(morpholinoamino)methyl]-1,2,3,4-tetrahydrobenzo[h][1,6]naphthyridine-5(6H)-one trihydrochloride], 770 nM; in that of `COc1cc(CN2CC=CC2)cc2[nH]c(=O)c3c(c12)NCCC3` [Example 82, 8-[(2,5-Dihydro-1H-pyrrole-1-yl)methyl]-10-methoxy-1,2,3,4-tetrahydrobenzo[h][1,6]naphthyridine-5(6H)-one dihydrochloride], 60 nM. Still for that read-out and setting: in the case of `O=c1[nH]c2cc(Cc3nnn[nH]3)ccc2c2c1CCCN2` [Example 95, 8-[(1H-tetrazole-5-yl)methyl]-1,2,3,4-tetrahydrobenzo[h][1,6]naphthyridine-5(6H)-one hydrochloride] it was 490 nM; in that of `CCOc1cc(CN2CCCCC2)cc2[nH]c(=O)c3c(c12)NCCC3` [Example 102, 10-Ethoxy-8-(piperidine-1-ylmethyl)-1,2,3,4-tetrahydrobenzo[h][1,6]naphthyridine-5(6H)-one dihydrochloride], 180 nM; in that of `COc1cc(CN2CC(C)OC(C)C2)cc2[nH]c(=O)c3c(c12)NCCC3` (stereo not shown) [Example 90, 8-[(2,6-Dimethylmorpholino)methyl]-10-methoxy-1,2,3,4-tetrahydrobenzo[h][1,6]naphthyridine-5(6H)-one dihydrochloride], 780 nM. The same measure, in the same setting: in the case of `CON=C1CCN(Cc2cc(OC)c3c4c(c(=O)[nH]c3c2)CCCN4)CC1` [Example 80, 10-Methoxy-8-[(4-(methoxyimino)piperidine-1-yl)methyl]-1,2,3,4-tetrahydrobenzo[h][1,6]naphthyridine-5(6H)-one trihydrochloride] it was 140 nM.
